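Cells were grown in 96-well plates and exposed to each compound for 48 hours at five concentrations; endpoints were interpolated linearly between bracketing concentrations, or set to the highest concentration if not reached. TGI is the concentration that stops growth completely.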
Tests used:
Experiment in all cases: NCI tumour cell line growth inhibition, 48 h
BT-549 breast = system: BT-549 breast
SK-MEL-5 melanoma = system: SK-MEL-5 melanoma
MOLT-4 leukemia = system: MOLT-4 leukemia
K-562 leukemia = system: K-562 leukemia
UACC-257 melanoma = system: UACC-257 melanoma
SN12C renal = system: SN12C renal
NCI-H226 lung = system: NCI-H226 lung
A498 renal = system: A498 renal
HCC-2998 colon = system: HCC-2998 colon
SK-MEL-28 melanoma = system: SK-MEL-28 melanoma
SR leukemia = system: SR leukemia
CCRF-CEM leukemia = system: CCRF-CEM leukemia
HT29 colon = system: HT29 colon
NCI-H23 lung = system: NCI-H23 lung
A549 NSCLC = system: A549 NSCLC
TK-10 renal = system: TK-10 renal
OVCAR-4 ovarian = system: OVCAR-4 ovarian
PC-3 prostate = system: PC-3 prostate
UO-31 renal = system: UO-31 renal
NCI-H522 lung = system: NCI-H522 lung
EKVX NSCLC = system: EKVX NSCLC
U251 CNS = system: U251 CNS
LOX IMVI melanoma = system: LOX IMVI melanoma
NCI-H460 lung = system: NCI-H460 lung
MALME-3M melanoma = system: MALME-3M melanoma
CAKI-1 renal = system: CAKI-1 renal
RPMI-8226 leukemia = system: RPMI-8226 leukemia
HS 578T breast = system: HS 578T breast
SF-539 CNS = system: SF-539 CNS
OVCAR-8 ovarian = system: OVCAR-8 ovarian
MDA-MB-231 breast = system: MDA-MB-231 breast
KM12 colon = system: KM12 colon
MCF7 breast = system: MCF7 breast
HCT-116 colon = system: HCT-116 colon
SK-MEL-2 melanoma = system: SK-MEL-2 melanoma
NCI/ADR-RES ovarian = system: NCI/ADR-RES ovarian
M14 melanoma = system: M14 melanoma
HL-60(TB) leukemia = system: HL-60(TB) leukemia
SNB-19 CNS = system: SNB-19 CNS
SF-295 CNS = system: SF-295 CNS
786-0 renal = system: 786-0 renal
HCT-15 colon = system: HCT-15 colon
IGROV1 ovarian = system: IGROV1 ovarian
UACC-62 melanoma = system: UACC-62 melanoma
SK-OV-3 ovarian = system: SK-OV-3 ovarian
MDA-N = system: MDA-N
SNB-75 CNS = system: SNB-75 CNS
ACHN renal = system: ACHN renal
RXF 393 renal = system: RXF 393 renal
DU-145 prostate = system: DU-145 prostate
HOP-92 NSCLC = system: HOP-92 NSCLC
MDA-MB-435 = system: MDA-MB-435
SF-268 CNS = system: SF-268 CNS
HOP-62 NSCLC = system: HOP-62 NSCLC
SW-620 colon = system: SW-620 colon
COLO 205 colon = system: COLO 205 colon
OVCAR-3 ovarian = system: OVCAR-3 ovarian
T-47D breast = system: T-47D breast
OVCAR-5 ovarian = system: OVCAR-5 ovarian

COc1ccc2nc3ccc(OC)cc3c(SCc3ccccc3)c2c1
TGI (BT-549 breast): > 100 µM
TGI (SK-MEL-5 melanoma): > 100 µM
TGI (MOLT-4 leukemia): > 83.2 µM
TGI (K-562 leukemia): > 100 µM
TGI (UACC-257 melanoma): > 100 µM
TGI (SN12C renal): > 100 µM
TGI (NCI-H226 lung): > 100 µM
TGI (A498 renal): > 100 µM
TGI (HCC-2998 colon): > 100 µM
TGI (SK-MEL-28 melanoma): > 100 µM
TGI (SR leukemia): > 100 µM
TGI (CCRF-CEM leukemia): > 94.1 µM
TGI (HT29 colon): > 100 µM
TGI (NCI-H23 lung): > 100 µM
TGI (A549 NSCLC): > 100 µM
TGI (TK-10 renal): > 100 µM
TGI (OVCAR-4 ovarian): > 100 µM
TGI (PC-3 prostate): > 100 µM
TGI (UO-31 renal): > 35.7 µM
TGI (NCI-H522 lung): > 100 µM
TGI (EKVX NSCLC): > 100 µM
TGI (U251 CNS): > 100 µM
TGI (LOX IMVI melanoma): > 100 µM
TGI (NCI-H460 lung): > 100 µM
TGI (MALME-3M melanoma): > 100 µM
TGI (CAKI-1 renal): > 100 µM
TGI (RPMI-8226 leukemia): > 100 µM
TGI (HS 578T breast): > 100 µM
TGI (SF-539 CNS): > 100 µM
TGI (OVCAR-8 ovarian): > 100 µM
TGI (MDA-MB-231 breast): > 100 µM
TGI (KM12 colon): > 100 µM
TGI (MCF7 breast): > 100 µM
TGI (HCT-116 colon): > 100 µM
TGI (SK-MEL-2 melanoma): > 100 µM
TGI (NCI/ADR-RES ovarian): > 100 µM
TGI (M14 melanoma): > 50 µM
TGI (HL-60(TB) leukemia): > 100 µM
TGI (SNB-19 CNS): > 100 µM
TGI (SF-295 CNS): > 100 µM
TGI (786-0 renal): > 100 µM
TGI (HCT-15 colon): > 100 µM
TGI (IGROV1 ovarian): > 100 µM
TGI (UACC-62 melanoma): > 100 µM
TGI (SK-OV-3 ovarian): > 100 µM
TGI (MDA-N): > 26.3 µM
TGI (SNB-75 CNS): > 100 µM
TGI (ACHN renal): > 100 µM
TGI (RXF 393 renal): > 100 µM
TGI (DU-145 prostate): > 100 µM
TGI (HOP-92 NSCLC): > 100 µM
TGI (MDA-MB-435): > 100 µM
TGI (SF-268 CNS): > 100 µM
TGI (HOP-62 NSCLC): > 100 µM
TGI (SW-620 colon): > 100 µM
TGI (COLO 205 colon): > 100 µM
TGI (OVCAR-3 ovarian): > 100 µM
TGI (T-47D breast): > 100 µM
TGI (OVCAR-5 ovarian): > 100 µM

CCOC(=O)C(NC(=O)c1ccccc1)(Nc1ccc(Cl)cc1C(F)(F)F)C(F)(F)F (configuration not stated)
TGI (BT-549 breast): 32.4 µM
TGI (SK-MEL-5 melanoma): > 37.5 µM
TGI (MOLT-4 leukemia): > 22.2 µM
TGI (K-562 leukemia): > 26.7 µM
TGI (UACC-257 melanoma): > 100 µM
TGI (SN12C renal): > 44.2 µM
TGI (NCI-H226 lung): > 100 µM
TGI (A498 renal): 47.1 µM
TGI (HCC-2998 colon): > 79.4 µM
TGI (SK-MEL-28 melanoma): > 100 µM
TGI (SR leukemia): > 24 µM
TGI (HT29 colon): 6.53 µM
TGI (NCI-H23 lung): > 78 µM
TGI (A549 NSCLC): > 100 µM
TGI (TK-10 renal): > 100 µM
TGI (OVCAR-4 ovarian): > 100 µM
TGI (PC-3 prostate): 29.2 µM
TGI (UO-31 renal): > 100 µM
TGI (NCI-H522 lung): 7.29 µM
TGI (EKVX NSCLC): > 100 µM
TGI (U251 CNS): 19 µM
TGI (LOX IMVI melanoma): > 100 µM
TGI (NCI-H460 lung): > 52.3 µM
TGI (MALME-3M melanoma): 22.1 µM
TGI (CAKI-1 renal): > 55.7 µM
TGI (RPMI-8226 leukemia): > 100 µM
TGI (HS 578T breast): > 100 µM
TGI (SF-539 CNS): > 88.6 µM
TGI (OVCAR-8 ovarian): > 100 µM
TGI (MDA-MB-231 breast): 77.2 µM
TGI (KM12 colon): 5.17 µM
TGI (MCF7 breast): > 100 µM
TGI (HCT-116 colon): > 84.5 µM
TGI (SK-MEL-2 melanoma): > 45.1 µM
TGI (NCI/ADR-RES ovarian): 10.6 µM
TGI (M14 melanoma): 28 µM
TGI (HL-60(TB) leukemia): 5.04 µM
TGI (SNB-19 CNS): > 100 µM
TGI (SF-295 CNS): > 69.8 µM
TGI (786-0 renal): > 100 µM
TGI (HCT-15 colon): > 50.9 µM
TGI (IGROV1 ovarian): > 64.7 µM
TGI (UACC-62 melanoma): 27.4 µM
TGI (SK-OV-3 ovarian): > 100 µM
TGI (MDA-N): 3.69 µM
TGI (SNB-75 CNS): 15.1 µM
TGI (ACHN renal): 27.4 µM
TGI (RXF 393 renal): 24.7 µM
TGI (DU-145 prostate): > 100 µM
TGI (HOP-92 NSCLC): 50.7 µM
TGI (MDA-MB-435): 3.24 µM
TGI (SF-268 CNS): > 100 µM
TGI (HOP-62 NSCLC): 31.8 µM
TGI (SW-620 colon): 17.2 µM
TGI (COLO 205 colon): 19.2 µM
TGI (OVCAR-3 ovarian): 18.7 µM
TGI (T-47D breast): > 45.6 µM
TGI (OVCAR-5 ovarian): > 100 µM

Source: PubChem BioAssay (NCI)
